Results as given in patent publication US9956199B2, “Chromane-like cyclic prenylflavonoids for the medical intervention in neurological disorders” (priority 2011, dated 2018).
“Also recorded” adds a separate entry of the source.

Key:
[1] = system: mouse embryonic day 16 forebrain (MEF) cells; assay: normalized renilla luciferase activity (cell survival / relative cytotoxicity); format: cell-based; settings: three days, FIG. 1D
Description: Luciferase assays were performed using a noncommercial dual luciferase enzyme assay system (Dyer et al., 2000, Anal Biochem). In this system, a co-transfection with pDCX-Luci and a control vector driving Renilla-luciferase under the CMV promoter was performed. The two different luciferases have different specific substrates and, therefore, the DCX regulatory region driven firefly luciferase activity can be distinguished from CMV driven Renilla-luciferase. For analysis, the firefly luciferase activity was normalized against the CMV driven Renilla-luciferase. […]
Elmer, Calif., USA) according to the manufacturer's instructions. Then, 100 μl of freshly prepared Renilla assay solution consisting of 1.1 M NaCl (VWR, Vienna, Austria), 2.2 mM Na2EDTA, 0.22 M KH2PO4 pH 5.1 (Merck, Darmstadt, Germany), 0.44 mg/mL BSA (Biomol, Hamburg, Germany), 1.3 mM NaN3 (Sigma-Aldrich, Taufkirchen, Germany), […] coelenterazine (p.j.k., Kleinblittersdorf, Germany) per well were added and measurements were performed using the Victor™ X Multilable Plate Reader as described above. Data were normalized the following way: i) firefly (FF) luciferase activity is related to the renilla (R) luciferase activity; and ii) the FF/R values of the individual samples are related to the FF/R value obtained by stimulation with the control medium and expressed as x-fold change compared to control. […]

[2] = system: PC12 cells; assay: PC12 cobalt-chloride stress test, Caspase 3/7 activation; format: cell-based, rat; settings: CoCl2 300 μM, 24 hours; compounds 10 μM, NGF 50 ng/ml; FIG. 7A
Description: For the neuroprotection assay PC12 cells were stressed with cobalt chloride 300 μM for 24 hours and the activity of Caspase 3/7 and LDH release were measured. NGF 50 ng/ml was used as a positive control for Caspase 3/7 activity and NGF 100 ng/ml was used as a positive control for LDH release.
For the PC12-CoCl2-Assay PC12 cells were used (ATCC: CRL-1721 ™). These cells were growing in RPMI supplemented with 10% Horse Serum (heat inactivated) (Sigma Aldrich, Taufkirchen, Germany), 5% Fetal Bovine Serum (Lonza, Wuppertal, Germany), 2.5% Penicillin/Streptomycin and Glutamine (PAA, Pasching, Austria) as adherent cultures when the plates are coated with Poly-L-ornithine ([…] in water) for at least one hour at 37° C. For passaging PC12-cells were resuspended with Accutase (PAA, Pasching, Austria) for 10 minutes at 37° C. once a week.
For all experiments cells were plated (quadruplicates) on Poly-L-ornithine-coated 96-well plates at a density of 10^4 cells per well. For Caspase 3/7-measurement cells were seeded in a white 96-well-plate to detect luminescence. As positive-control for neuroprotection Nerve Growth Factor (NGF) (50 ng/ml and 100 ng/ml) was used. To induce hypoxia CoCl2 (300 μM) was added to the cells after 20-24 hours. The control-treatment was compound 1a (ENDF1), compound 1b (ENDF3), compound 3a (ENDF2), ENDF4 or Osajin in the concentrations 1 μM and 10 μM in proliferation-media without CoCl2.
For Caspase 3/7-activation Caspase 3/7 substrate was added to the cells in an equal amount 22 hours after stimulation. Plates are incubated for 2 hours at room temperature in the dark, luminescence was measured 24 hours after stimulation and the blank-values are subtracted.

Structure (SMILES) | normalized renilla activity (approximate measure of cell survival / relative cytotoxicity) [1] | protection from CoCl2 induced Caspase 3/7 activity [2]
COc1cc2c(c(O)c1C(=O)/C=C/c1ccc(O)cc1)C=CC(C)(C)O2 [Compound 1a, (E)-1-(5-hydroxy-7-methoxy-2,2-dimethyl-2H-chromen-6-yl)-3-(4-hydroxyphenyl)prop-2-en-1-one] | significantly higher than that exerted by the reference compounds xanthohumol and osajin | partially protected; also recorded: significant neuroprotective effect similar to NGF
COc1cc2c(c(O)c1C(=O)/C=C/c1ccc(O)cc1)CCC(C)(C)O2 [Compound 1b, (E)-1-(5-hydroxy-7-methoxy-2,2-dimethylchroman-6-yl)-3-(4-hydroxyphenyl)prop-2-en-1-one] | significantly higher than that exerted by the reference compounds xanthohumol and osajin | partially protected; also recorded: significant neuroprotective effect similar to NGF
